The text below walks through data of patent US20250025473A1 (priority 2021, published 2025).

The target of data set [1] is T1, panel of 393 kinases (Homo sapiens, UniProt P78527).
T1 construct: purchased Reaction Biology Corporation
Kind of data set: biochemical. The conditions noted are these: CIMSS 10 μM, 10 μM ATP.

For data set [2], the target named is T2, panel of 393 kinases (Homo sapiens, UniProt Q15120).
T2 construct: purchased Reaction Biology Corporation
In words: biochemical. The conditions noted are these: CIMSS 10 μM, 10 μM ATP.

The target of data set [3] is T3, panel of 393 kinases (Homo sapiens, UniProt Q96QT4).
T3 construct: purchased Reaction Biology Corporation
In words: biochemical. Particulars: CIMSS 10 μM, 10 μM ATP.

Data set [4] concerns the target T4, panel of 393 kinases (Homo sapiens, UniProt Q9P2K8).
T4 construct: purchased Reaction Biology Corporation
Kind of data set: biochemical. Particulars: CIMSS 10 μM, 10 μM ATP.

For data set [5], the system named is HaCat cells. Kind of data set: Cytotoxicity/viability, confluent HaCat cells. The data set is classed as cell-based, human. Particulars: 10 μM, fully confluent HaCat cells, up to 120 h. The method, then:
Results are presented as mean±SEM odu as a percentage of the DMSO control (n=2 independent experiments each conducted in duplicate for C and 1 experiment conducted in duplicate for D). Results in B-D were compared by ANOVA, *p<0.05, **p<0.01, ***p<0.001, ****p<0.0001).
Cell proliferation and viability were determined using the Cell Titer 96® Aqueous One Solution and optical density was determined using a SpectraMax® M5e Molecular Devices multidetection microplate reader. […] The cells were then fixed and stained for activated caspases (red) and SYTOX Green (for integrity of plasma membrane) by Image-iT™ LIVE red Poly Caspase Detection kit. Nuclei were stained with Hoechst. Images were acquired by laser confocal microscope ZeissLive/DuoScan equipped with oil immersion objectives 63×1.1 and captured in an optical slice of 0.37 μm with appropriate filters. Alternatively, immunoblots were prepared and probed with antibodies to cleaved PARP-1 or cleaved caspase 8.

For the next data set, the system named is Akt, PDPK1, PLCγ. In words: HSV-induced phosphorylation of Akt, PDPK1 and PLCγ (confocal, biotinylation of cell surface proteins). The conditions noted are these: 10 μM, HaCat. The data set is classed as cell-based, human.
A further data set has as its system VSV-G. The data set is classed as cell-based.
The subject of the next data set is MDCK-MDR1 cells. The conditions noted are these: 5 μM.
The target of a further data set is PKCd (Homo sapiens, UniProt Q05655). In words: HotSpot in vitro kinase assay, PKCd. Particulars: read-out: Compound IC50, PKCd; in vitro kinase activity.
The next data set has as its system HSV-2(G). In words: Nuclear transport of VP16 (immunoblot of nuclear extracts). The conditions noted are these: HaCat and primary vaginal cells, 1 h post-infection; CIMSS 10 μM, antibody 2 μg/ml. On the technique in general: Immunoblotting shows a protein as a band on a membrane.
The subject of data set [6] is HaCat cells. Kind of data set: Cell proliferation, ~50% confluent HaCat (Cell Titer 96 Aqueous One).
Data set [7] relates to HaCat cells. Kind of data set: Apoptosis assays (activated caspases, SYTOX Green, cleaved PARP-1/caspase 8).

Read-outs that look alike come from different tables or passages of the source.

T1 sequence (P78527 whole entry): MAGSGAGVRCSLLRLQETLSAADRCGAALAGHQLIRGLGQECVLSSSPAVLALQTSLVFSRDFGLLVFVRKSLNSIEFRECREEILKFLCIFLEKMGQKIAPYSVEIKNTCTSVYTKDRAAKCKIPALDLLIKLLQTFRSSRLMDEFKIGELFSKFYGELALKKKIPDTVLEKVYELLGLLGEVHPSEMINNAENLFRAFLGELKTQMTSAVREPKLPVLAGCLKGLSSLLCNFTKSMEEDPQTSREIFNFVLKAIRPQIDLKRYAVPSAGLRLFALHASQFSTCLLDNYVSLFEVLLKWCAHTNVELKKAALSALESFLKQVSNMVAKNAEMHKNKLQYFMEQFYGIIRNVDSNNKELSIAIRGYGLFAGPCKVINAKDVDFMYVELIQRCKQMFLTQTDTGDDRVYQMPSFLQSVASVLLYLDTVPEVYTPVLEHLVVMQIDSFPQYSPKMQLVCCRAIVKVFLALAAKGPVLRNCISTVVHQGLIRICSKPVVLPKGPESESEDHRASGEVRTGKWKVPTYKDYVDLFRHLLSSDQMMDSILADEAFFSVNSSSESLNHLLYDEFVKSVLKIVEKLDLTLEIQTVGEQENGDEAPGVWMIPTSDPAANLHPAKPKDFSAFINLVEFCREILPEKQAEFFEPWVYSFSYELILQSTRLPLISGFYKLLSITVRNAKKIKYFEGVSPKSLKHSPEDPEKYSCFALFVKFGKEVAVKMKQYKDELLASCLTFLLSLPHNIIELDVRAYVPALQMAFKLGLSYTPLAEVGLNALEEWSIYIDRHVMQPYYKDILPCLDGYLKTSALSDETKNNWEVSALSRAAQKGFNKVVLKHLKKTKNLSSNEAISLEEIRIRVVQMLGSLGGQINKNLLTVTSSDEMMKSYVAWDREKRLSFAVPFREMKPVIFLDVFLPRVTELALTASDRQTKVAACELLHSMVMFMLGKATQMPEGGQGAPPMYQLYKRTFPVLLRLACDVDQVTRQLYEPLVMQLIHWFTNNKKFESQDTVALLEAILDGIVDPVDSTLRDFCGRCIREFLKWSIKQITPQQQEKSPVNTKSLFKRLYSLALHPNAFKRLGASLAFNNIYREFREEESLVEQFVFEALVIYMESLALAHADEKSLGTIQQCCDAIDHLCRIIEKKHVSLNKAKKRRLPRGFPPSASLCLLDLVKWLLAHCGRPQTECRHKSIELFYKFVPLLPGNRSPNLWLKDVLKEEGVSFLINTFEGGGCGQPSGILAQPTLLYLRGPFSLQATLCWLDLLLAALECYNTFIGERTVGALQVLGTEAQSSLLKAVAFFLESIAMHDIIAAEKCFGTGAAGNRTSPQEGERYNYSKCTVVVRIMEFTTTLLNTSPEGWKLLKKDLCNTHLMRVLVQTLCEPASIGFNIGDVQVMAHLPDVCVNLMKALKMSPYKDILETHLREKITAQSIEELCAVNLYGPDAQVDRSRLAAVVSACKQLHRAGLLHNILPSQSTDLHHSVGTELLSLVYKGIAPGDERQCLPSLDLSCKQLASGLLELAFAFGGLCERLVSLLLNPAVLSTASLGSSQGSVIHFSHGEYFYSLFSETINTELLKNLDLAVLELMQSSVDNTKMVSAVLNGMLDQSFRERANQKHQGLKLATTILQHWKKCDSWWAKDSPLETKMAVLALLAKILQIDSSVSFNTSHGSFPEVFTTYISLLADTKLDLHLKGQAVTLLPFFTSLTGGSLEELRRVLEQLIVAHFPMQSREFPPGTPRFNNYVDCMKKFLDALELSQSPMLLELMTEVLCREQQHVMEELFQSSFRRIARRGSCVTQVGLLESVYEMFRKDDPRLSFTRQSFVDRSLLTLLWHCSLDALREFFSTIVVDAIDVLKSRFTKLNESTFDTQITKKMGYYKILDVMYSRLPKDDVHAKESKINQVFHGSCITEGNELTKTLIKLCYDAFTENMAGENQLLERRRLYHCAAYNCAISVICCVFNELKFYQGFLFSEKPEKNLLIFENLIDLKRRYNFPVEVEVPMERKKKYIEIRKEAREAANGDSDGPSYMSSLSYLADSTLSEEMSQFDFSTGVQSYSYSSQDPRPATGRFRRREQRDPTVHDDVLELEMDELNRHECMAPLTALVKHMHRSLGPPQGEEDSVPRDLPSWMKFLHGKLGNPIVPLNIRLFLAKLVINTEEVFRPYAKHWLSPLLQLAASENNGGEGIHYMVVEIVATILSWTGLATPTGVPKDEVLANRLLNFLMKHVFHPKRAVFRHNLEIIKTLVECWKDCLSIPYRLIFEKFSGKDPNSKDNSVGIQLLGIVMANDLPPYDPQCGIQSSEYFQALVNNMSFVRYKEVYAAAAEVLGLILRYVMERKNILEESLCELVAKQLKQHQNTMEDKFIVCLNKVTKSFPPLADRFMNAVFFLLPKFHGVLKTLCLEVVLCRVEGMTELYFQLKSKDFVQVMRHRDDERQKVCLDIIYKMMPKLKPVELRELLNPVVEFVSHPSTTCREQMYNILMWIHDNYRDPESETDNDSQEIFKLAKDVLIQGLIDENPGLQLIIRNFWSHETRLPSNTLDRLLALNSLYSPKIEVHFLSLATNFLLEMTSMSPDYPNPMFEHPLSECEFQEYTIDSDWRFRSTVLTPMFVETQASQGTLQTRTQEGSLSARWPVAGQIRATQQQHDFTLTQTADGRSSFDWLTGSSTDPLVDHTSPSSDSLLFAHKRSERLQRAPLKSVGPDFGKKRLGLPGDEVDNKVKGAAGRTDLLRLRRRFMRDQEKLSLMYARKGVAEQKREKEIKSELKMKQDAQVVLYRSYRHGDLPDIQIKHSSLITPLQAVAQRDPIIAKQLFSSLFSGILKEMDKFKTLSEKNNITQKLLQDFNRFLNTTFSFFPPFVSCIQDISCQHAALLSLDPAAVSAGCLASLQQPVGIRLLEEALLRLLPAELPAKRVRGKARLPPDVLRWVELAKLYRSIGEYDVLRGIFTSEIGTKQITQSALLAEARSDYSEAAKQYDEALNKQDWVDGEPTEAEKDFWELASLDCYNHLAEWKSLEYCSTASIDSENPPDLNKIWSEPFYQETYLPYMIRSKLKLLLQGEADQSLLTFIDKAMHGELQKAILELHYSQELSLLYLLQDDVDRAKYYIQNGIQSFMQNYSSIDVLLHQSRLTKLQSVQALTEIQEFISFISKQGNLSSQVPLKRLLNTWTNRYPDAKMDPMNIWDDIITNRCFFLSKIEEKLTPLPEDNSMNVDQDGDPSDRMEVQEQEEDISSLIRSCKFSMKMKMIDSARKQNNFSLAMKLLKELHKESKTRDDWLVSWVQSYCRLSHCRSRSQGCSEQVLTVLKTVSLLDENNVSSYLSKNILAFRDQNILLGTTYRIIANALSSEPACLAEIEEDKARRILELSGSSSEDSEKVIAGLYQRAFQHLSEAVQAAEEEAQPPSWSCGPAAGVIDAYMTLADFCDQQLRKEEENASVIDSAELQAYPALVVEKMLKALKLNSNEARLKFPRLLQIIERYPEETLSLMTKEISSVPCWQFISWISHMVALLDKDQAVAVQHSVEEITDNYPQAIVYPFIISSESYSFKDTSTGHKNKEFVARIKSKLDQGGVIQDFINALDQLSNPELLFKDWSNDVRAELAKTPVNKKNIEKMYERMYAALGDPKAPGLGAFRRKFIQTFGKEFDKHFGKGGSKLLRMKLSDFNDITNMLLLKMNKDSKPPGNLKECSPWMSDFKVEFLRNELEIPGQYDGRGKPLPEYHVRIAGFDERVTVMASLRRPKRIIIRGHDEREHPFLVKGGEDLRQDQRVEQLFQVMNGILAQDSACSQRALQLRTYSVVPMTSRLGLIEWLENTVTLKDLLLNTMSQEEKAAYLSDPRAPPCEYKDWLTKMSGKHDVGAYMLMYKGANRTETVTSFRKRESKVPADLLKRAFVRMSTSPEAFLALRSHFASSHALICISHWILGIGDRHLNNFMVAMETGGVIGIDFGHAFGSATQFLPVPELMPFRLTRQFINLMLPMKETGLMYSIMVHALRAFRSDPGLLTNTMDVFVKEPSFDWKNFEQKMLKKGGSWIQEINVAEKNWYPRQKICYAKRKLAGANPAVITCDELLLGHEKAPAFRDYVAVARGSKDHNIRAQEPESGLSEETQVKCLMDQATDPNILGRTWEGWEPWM
T2 sequence (Q15120 whole entry): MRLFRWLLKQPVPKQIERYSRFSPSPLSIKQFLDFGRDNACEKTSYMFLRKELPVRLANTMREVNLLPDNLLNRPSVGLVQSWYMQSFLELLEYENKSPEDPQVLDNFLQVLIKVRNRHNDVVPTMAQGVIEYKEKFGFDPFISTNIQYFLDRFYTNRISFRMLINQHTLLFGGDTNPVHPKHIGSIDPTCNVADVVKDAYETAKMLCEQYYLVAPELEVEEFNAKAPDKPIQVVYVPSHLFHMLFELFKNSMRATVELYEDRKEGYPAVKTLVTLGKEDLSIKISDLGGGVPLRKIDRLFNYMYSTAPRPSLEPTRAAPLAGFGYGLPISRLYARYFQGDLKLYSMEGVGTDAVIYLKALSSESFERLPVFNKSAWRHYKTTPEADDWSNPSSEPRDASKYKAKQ

On to `CO[C@@H]1[C@H](N(C)C(=O)CCC(=O)NCc2cn(CCCS(=O)(=O)[O-])nn2)C[C@H]2O[C@]1(C)n1c3ccccc3c3c4c(c5c6ccccc6n2c5c31)C(=O)NC4.[Na+]` [CIMSS], for which the remaining activity at 10 µM on panel of 393 kinases [1] (read-out: % Enzyme Activity (relative to DMSO controls) CIMSS (10 μM) Data 1, kinase DNA-PK, Data 1) stood at 98.2%; at panel of 393 kinases [1] (read-out: % Enzyme Activity (relative to DMSO controls) CIMSS (10 μM) Data 2, kinase DNA-PK, Data 2), 95.8%; on panel of 393 kinases [2] (read-out: % Enzyme Activity (relative to DMSO controls) CIMSS (10 μM) Data 1, kinase PDK3/PDHK3, Data 1), 96.4%; on panel of 393 kinases [2] (read-out: % Enzyme Activity (relative to DMSO controls) CIMSS (10 μM) Data 2, kinase PDK3/PDHK3, Data 2) it was 94.8%; on panel of 393 kinases [3] (read-out: % Enzyme Activity (relative to DMSO controls) CIMSS (10 μM) Data 1, kinase TRPM7/CHAK1, Data 1) it was 91.6%; on panel of 393 kinases [3] (read-out: % Enzyme Activity (relative to DMSO controls) CIMSS (10 μM) Data 2, kinase TRPM7/CHAK1, Data 2), 91.5%. Besides, the remaining activity at 10 µM on panel of 393 kinases [4] (read-out: % Enzyme Activity (relative to DMSO controls) CIMSS (10 μM) Data 1, kinase EIF2AK4, Data 1) came out at 9.5%; on panel of 393 kinases [4] (read-out: % Enzyme Activity (relative to DMSO controls) CIMSS (10 μM) Data 2, kinase EIF2AK4, Data 2) it was 9.39%. Also, in the data set with HaCat cells [5], the cytotoxicity entry is “little or no cytotoxicity”. Moreover, the “pPDPK1 and pPLCγ signal by confocal microscopy” value with Akt, PDPK1, PLCγ (15 and 30 minutes following viral infection) is “inhibited”. The “phosphorylation of PDPK1, PLCγ and Akt in the membrane fraction” value in the data set on Akt, PDPK1, PLCγ (15 minutes of HSV exposure, biotinylation) was “reduced”. The “VSV-G infection, percentage of GFP+ cells” value with VSV-G is “no effect”. For the same compound, the “Recover %, MDCK Transport” value in the data set on MDCK-MDR1 cells stood at 96%. Moreover, the IC50 (as a rule, the concentration that inhibits the measured activity by half) at PKCd is 3.64 nM. In the data set with HSV-2(G), the “nuclear transport of VP-16” value is reported as “inhibited”. In addition, the “lowest concentration significantly inhibiting HaCat cell growth” value in the data set on HaCat cells [6] (24 h) was “no significant inhibition”; in the data set with HaCat cells [6] (72 h) it was 100 µM. Further, the “induction of apoptosis (SYTOX Green and anti-caspase staining)” value in the data set on HaCat cells [7] (10 μM, 6 or 24 hours) is on record as “did not induce apoptosis”. Also, the “PARP-1 or caspase 8 cleavage” value in the data set on HaCat cells [7] (0.1, 1 or 10 μM, 8 hours) was “did not induce PARP-1 or caspase 8 cleavage”.
